Earlier results, collected in PMC12749109 (Nature Communications, 2025).
Entries after “also recorded” stand apart in the source; their conditions may differ.

Legend:
TNBS-induced colitis = conditions: rat acute TNBS colitis; cited from earlier work
GALR1 = conditions: cited from earlier work
GALR2 = conditions: cited from earlier work
GALR3 = conditions: cited from earlier work

galanin: biologically active neuropeptide of 29/30 amino acids, cited literature
severity of colonic damage and inflammatory responses (TNBS-induced colitis): decreases inflammatory responses; also recorded: reduce the severity of colonic damage and inflammatory responses | affinity (GALR1): high affinity | affinity (GALR2): high affinity | affinity (GALR3): lower affinity
